Results taken from patent publication US20080318268A1, “Devices and Methods for the Selection of Agents with Efficacy Against Biofilm” (priority 2005, published 2008).
Like-named read-outs stand apart in the source and are kept apart here.

What was measured:
[1] = test system: Staphylococcus aureus (Staph) planktonic bacteria; assay: MBEC assay, planktonic Staph isolates (Example 5); assay type: cell-based; details: number of resistant isolates; 12 isolates from device associated infections; exposed 24 hours
[2] = test system: planktonic Staphylococcus aureus; assay: Staphylococcus test plate, planktonic forms (Example 9); assay type: cell-based; details: breakpoint concentrations, number in the label is the concentration tested
[3] = test system: Staphylococcus aureus biofilm; assay: Staphylococcus test plate, biofilm forms (Example 9); assay type: cell-based; details: breakpoint concentrations, number in the label is the concentration tested
[4] = test system: Staphylococcus aureus (Staph) biofilm; assay: MBEC assay, Staph biofilms (Example 5); assay type: cell-based; details: number of resistant isolates; 12 isolates from device associated infections; exposed 24 hours
planktonic Candida cells = assay: Planktonic antifungal sensitivity of Candida spp.; assay type: cell-based; details: all species tested
Protocol: (§1) Three clinical isolates of Candida were used in this study, including one albicans and two non-albicans species. C. albicans ATCC 14053 was obtained from the University Of Calgary, Department Of Biological Sciences. C. tropicalis 99916 and C. glabrata 14326 were obtained from the dialysate of patients undergoing continued ambulatory peritoneal dialysis (CAPD). Aspergillus fumigatus was also tested.
(§2) Biofilm susceptibility testing uses the pegged lid of the assembly, now containing biofilms formed after rocking in the tray for 24 hour. Each peg on the lid was gently washed once in 200 μl of phosphate buffered saline solution (PBSS) in a 96-well microtiter plate (Falcon). The pegged lid was then transferred to another 96 well microtiter plate containing 2 fold dilutions antifungal agent in 200 μl of RPMI 1640 (Sigma, St. Louis, Mo.) or RPMI 1640 containing 1% DMSO (see test drug section). After the pegs were exposed to the drugs for 24 hours, the pegged lid was removed and gently rinsed twice in saline. The pegged lid was then placed on a 96 well plate containing RPMI 1640 recovery medium. The pegs were sonicated for 5 minutes (Candida spp.) or 7 minutes (Aspergillus) in an ultrasonicator to dislodge adherent cells into the recovery medium. Aliquots of 20 μl of the recovery medium were spot plated on SDA (Candida spp) or Rose Bengal Agar (A. fumigatus) to obtain the MBEC. The assembly was also used to determine the minimum inhibitory concentration (MIC) and minimum fungicidal concentration (MFC). The turbidity of the wells that contained the antibiotic and planktonic cells which were shed from the biofilm was measured at 650 nm to obtain the MIC. A 20 μl sample from each well was also spot plated onto Sabouraud Dextrose agar (Candida spp) or Rose Bengal Agar (A. fumigatus) to obtain the MFC.
Minimum Inhibitory Concentrations (MIC) and Minimum Fungicidal Concentrations (MFC) were determined according to the guidelines of the National Committee for Clinical laboratory Standards (NCCLS). Briefly, Candida sp. were maintained on polystyrene spheres at −70° C. until plating. These organisms were streaked onto Sabouraud Dextrose agar (Microbiologie) plates 24 hours before test initiation. The 24 hour colonies were picked from the agar plates and placed in Muellar-Hinton Broth (MHB, Microbiologie) such that the turbidity matched a McFarland standard of 0.5. This was then diluted 1:10 in MHB to obtain a suspension of approximately 1×10^5 to 5×10^5 CFU/ml. A 5 μl volume of this suspension was added to wells containing 200 μl of antifungal agent serially diluted in RPMI 1640 media (Sigma) in a 96 well microtiter plate (Nunclon). A. fumigatus was maintained as a spore suspension at 4° C. until testing. The spore suspension (50 μl) was diluted into 250 ml of TSB, and 5 μl of this suspension was added to each test well containing dilution of antifungal agent as above.
The test wells were then incubated at 37° C. for 24 hours with the antifungal drugs. MICs for Candida were obtained after incubation by reading the turbidity at 650 nm on a microtiter plate reader (Softmax, VWR). A 20 μl aliquot of each well was also plated (SDA) and MFCs obtained from them after 24 hours incubation at 37° C. MFCs were determined for Aspergillus by plating 100 μl from each well onto Rose Bengal Agar, followed by spreading with a sterile glass spreader. The plated organisms were maintained at 25° C. for three days before colony enumeration.
Drugs tested. Itraconazole, Fluconazole, and Ketoconazole were obtained from Janssen Pharmaceuticals in Brussels, Belgium. Nystatin 5-Fluorocytosine, Griseofulvin, Amphotericin B and Polymyxin B were obtained from Sigma Chemical Co, St. Louis, Mo. 5-Fluorocytosine, polymyxin B sulphate and nystatin were dissolved in double-distilled water to a concentration of 10.24 mg/ml and diluted in the test wells through a range of 1024 μg/ml to 0.125 μg/ml in RPMI. […]

[5] = test system: biofilm cells of C. albicans; assay: Minimum biofilm eradication concentration assay, C. albicans biofilm; assay type: cell-based, Candida albicans
Protocol: as §1
Biofilm formation and measurement of antimicrobial sensitivity of Candida and Aspergillus biofilms were performed using an assembly of the present invention. The device features a microtiter plate lid with 96 pegs or projections distributed on the lid. Each peg provided the surface for microorganism to adhere, colonize and form a uniform biofilm. The pegs fit precisely into the wells of a standard 96-well microtiter plate. The lid was used in conjunction with a base having special troughs for growing, washing, and incubating fungi. […] It was determined in preliminary experiments that C. glabrata required 10% CO2 atmosphere for biofilms to form.
(§3) Biofilm susceptibility testing uses the pegged lid of the assembly, now containing biofilms formed after rocking in the tray for 24 hour. […] The turbidity of the wells that contained the antibiotic and planktonic cells which were shed from the biofilm was measured at 650 nm to obtain the MIC. […]

Candida biofilms = assay: Minimum biofilm eradication concentration assay, Candida spp. biofilms; assay type: cell-based
Protocol: as §1
Biofilm formation and measurement of antimicrobial sensitivity of Candida and Aspergillus biofilms were performed using an assembly of the present invention. The device features a microtiter plate lid with 96 pegs or projections distributed on the lid. Each peg provided the surface for microorganism to adhere, colonize and form a uniform biofilm. The pegs fit precisely into the wells of a standard 96-well microtiter plate. The lid was used in conjunction with a base having special troughs for growing, washing, and incubating fungi. Colonies of Candida sp. were picked from 24 hour cultures on Sabouraud Dextrose agar (SDA) (BBL Microbiological Systems, Cockeysville, Md.) and placed into Mueller-Hinton Broth (MHB) (Difco Laboratories, Detroit Mich.) such that the suspension matched a McFarland standard of 1.0. This suspension was then diluted 1:30 in MHB, and 25 ml were pipetted into the trough chamber of the base. The closed assembly (lid with pegs positioned on the base) was placed on a Hoeffer Red Rocker (VWR, Scientific) set to rock the plates 3.5 cycles per minute in a 37° C. incubator. C. albicans and C. tropicalis were incubated aerobically, while C. glabrata was incubated in 10% CO2. It was determined in preliminary experiments that C. glabrata required 10% CO2 atmosphere for biofilms to form.
as §2
Drugs tested. Itraconazole, Fluconazole, and Ketoconazole were obtained from Janssen Pharmaceuticals in Brussels, Belgium. Nystatin 5-Fluorocytosine, Griseofulvin, Amphotericin B and Polymyxin B were obtained from Sigma Chemical Co, St. Louis, Mo. […]

[6] = test system: invasive pulmonary, sinus and cerebral aspergillosis; details: cited from earlier work
[7] = test system: planktonic cultures of C. albicans; assay: Planktonic antifungal sensitivity (MIC, MFC) of C. albicans; assay type: cell-based, Candida albicans
Protocol: as §1
as §2, with “The assembly was also used to determine the minimum inhibitory concentration (MIC) and minimum fungicidal concentration (MFC).” left out, “A 20 μl sample from each well was also spot plated onto Sabouraud Dextrose agar (Candida spp) or Rose Bengal Agar (A. fumigatus) to obtain the MFC.” left out
(§4) Minimum Inhibitory Concentrations (MIC) and Minimum Fungicidal Concentrations (MFC) were determined according to the guidelines of the National Committee for Clinical laboratory Standards (NCCLS). […]
(§5) The test wells were then incubated at 37° C. for 24 hours with the antifungal drugs. MICs for Candida were obtained after incubation by reading the turbidity at 650 nm on a microtiter plate reader (Softmax, VWR). […] MFCs were determined for Aspergillus by plating 100 μl from each well onto Rose Bengal Agar, followed by spreading with a sterile glass spreader. […]

[8] = cited from earlier work
C. tropicalis = assay: Planktonic antifungal sensitivity (MIC) of C. tropicalis; assay type: cell-based, Candida tropicalis; details: C. tropicalis strain tested
Protocol: as §1
as §3, with “hour. Each peg on the lid was gently washed once in 200 μl of phosphate buffered saline solution (PBSS) in a 96-well microtiter plate (Falcon).” for “hour.”
as §4, §5

[9] = test system: Pseudomonas aeruginosa (Ps) biofilm; assay: MBEC assay, Ps biofilms (Example 5); assay type: cell-based; details: number of resistant isolates; 12 isolates from Cystic Fibrosis patients; exposed 24 hours
[10] = test system: Pseudomonas aeruginosa (Ps) planktonic bacteria; assay: MBEC assay, planktonic Ps isolates (Example 5); assay type: cell-based; details: number of resistant isolates; 12 isolates from Cystic Fibrosis patients; exposed 24 hours
planktonic P. aeruginosa = assay: Pseudomonas aeruginosa biofilm assay kit, planktonic MIC reading of challenge plate (Example 8); assay type: cell-based; details: challenge 24 hours at 35° C.; breakpoint concentrations
P. aeruginosa biofilm = assay: Pseudomonas aeruginosa biofilm assay kit, biofilm MBEC reading of recovery plate (Example 8); assay type: cell-based; details: challenge 24 hours at 35° C.; recovery 20 to 24 hours; breakpoint concentrations
[11] = planktonic cultures of C. albicans

## CN[C@H](CC(C)C)C(=O)N[C@H]1C(=O)N[C@@H](CC(N)=O)C(=O)N[C@H]2C(=O)N[C@H]3C(=O)N[C@H](C(=O)N[C@H](C(=O)O)c4cc(O)cc(O)c4-c4cc3ccc4O)[C@H](O)c3ccc(c(Cl)c3)Oc3cc2cc(c3O[C@@H]2O[C@H](CO)[C@@H](O)[C@H](O)[C@H]2O[C@H]2C[C@](C)(N)[C@H](O)[C@H](C)O2)Oc2ccc(cc2Cl)[C@H]1O [VAN, vancomycin]
[1]
  Staph resistance to individual antibiotics and antibiotic combinations, Planktonic: 6
[2]; listed as VAN2
  Number of Staphylococcus aureus isolates resistant to individual antibiotics and antibiotic combinations, Planktonic: 5
[2]; listed as VAN4
  Number of Staphylococcus aureus isolates resistant to individual antibiotics and antibiotic combinations, Planktonic: 1
[3]
  Number of Staphylococcus aureus isolates resistant to individual antibiotics and antibiotic combinations, Biofilm: 12
[4]
  Staph resistance to individual antibiotics and antibiotic combinations, Biofilm: 12

## C[C@@H]1[C@H](O)[C@@H](C)/C=C/C=C/C=C/C=C/C=C/C=C/C=C/[C@H](O[C@@H]2O[C@H](C)[C@@H](O)[C@H](N)[C@@H]2O)C[C@@H]2O[C@](O)(C[C@@H](O)C[C@@H](O)[C@H](O)CC[C@@H](O)C[C@@H](O)CC(=O)O[C@H]1C)C[C@H](O)[C@H]2C(=O)O [amphotericin B, Amphotericin B]
Planktonic Candida cells
  effectiveness in killing planktonic Candida cells: effective
[5]
  average concentration required to kill biofilm cells: 12 µg/mL
Candida biofilms; Candida biofilms
  MBEC: 16 µg/mL
Candida biofilms; biofilm (sessile) Candida
  effectiveness against Candida growing as a biofilm: most effective agents
[6]; 14 days of treatment
  cases that show any response: 54%
[6]; patients treated for invasive cerebral aspergillosis
  crude mortality rate: 99%
[6]; patients treated for invasive pulmonary aspergillosis
  crude mortality rate: 86%
[6]; patients treated for invasive sinus aspergillosis
  crude mortality rate: 66%
[7]; [11]
  average MFC: 0.02 µg/mL
  average MIC: 0.09 µg/mL
[8]
  peak permissible human serum concentrations: 2 µg/mL

## OC(Cn1cncn1)(Cn1cncn1)c1ccc(F)cc1F [fluconazole, Fluconazole]
Planktonic Candida cells
  effectiveness in killing planktonic Candida cells: effective
C. tropicalis
  classification by fluconazole MIC criterion (less than or equal to 8 μg/ml = susceptible): susceptible
[7]; C. albicans strain tested
  classification by fluconazole MIC criterion (less than or equal to 8 μg/ml = susceptible): susceptible

## gentamicin [GM]
[9]
  Ps resistance to individual antibiotics and antibiotic combinations, Biofilm: 12
[10]
  Ps resistance to individual antibiotics and antibiotic combinations, Planktonic: 8
[1]
  Staph resistance to individual antibiotics and antibiotic combinations, Planktonic: 6
Planktonic P. aeruginosa
  Number of P. aeruginosa isolates resistant to individual antibiotics and antibiotic combinations, Planktonic: 8
[2]; listed as GM2
  Number of Staphylococcus aureus isolates resistant to individual antibiotics and antibiotic combinations, Planktonic: 4
[2]; listed as GM4
  Number of Staphylococcus aureus isolates resistant to individual antibiotics and antibiotic combinations, Planktonic: 3
[3]; listed as GM2
  Number of Staphylococcus aureus isolates resistant to individual antibiotics and antibiotic combinations, Biofilm: 11
[3]; listed as GM4
  Number of Staphylococcus aureus isolates resistant to individual antibiotics and antibiotic combinations, Biofilm: 10
P. aeruginosa biofilm
  Number of P. aeruginosa isolates resistant to individual antibiotics and antibiotic combinations, Biofilm: 12
[4]
  Staph resistance to individual antibiotics and antibiotic combinations, Biofilm: 10
